The text below walks through data of PubChem BioAssay (NCI).

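Cells were grown in 96-well plates and exposed to each compound for 48 hours at five concentrations; endpoints were interpolated linearly between bracketing concentrations, or set to the highest concentration if not reached. TGI: total growth inhibition.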 Where a SMILES comes first, the peptide text is derived from it. The star is where a group is joined. Boc = CC(C)(C)OC(=O)*

Among the test systems are LOX IMVI melanoma; MDA-MB-231 breast; NCI-H226 lung; OVCAR-3 ovarian; RPMI-8226 leukemia; SF-268 CNS; SNB-19 CNS; UACC-257 melanoma; CCRF-CEM leukemia; KM12 colon.
Common to all, as to experiment: NCI-60 cell line screen, 48 h

For the compound `O=C(/C=C/c1ccc(O)c(O)c1)OCCCc1ccccc1`, the TGI was determined as 27.1 µM in the assay on LOX IMVI melanoma; 25.2 µM in the assay with MDA-MB-231 breast; 34.6 µM with NCI-H226 lung; 6.6 µM in the assay on OVCAR-3 ovarian; 49.4 µM with RPMI-8226 leukemia; 24 µM with SF-268 CNS. Also, the TGI in the assay on SNB-19 CNS came to 33.6 µM; in the assay with UACC-257 melanoma, 63.4 µM.
Take `CC(=O)OCCCOCn1c(Cc2ccccc2)c(C)c(=O)[nH]c1=O`: the TGI in the assay on CCRF-CEM leukemia, in the assay on KM12 colon, with LOX IMVI melanoma, in the assay with MDA-MB-231 breast, in the assay with NCI-H226 lung and with OVCAR-3 ovarian was over 100 µM throughout. For the same compound, the TGI in the assay with RPMI-8226 leukemia, in the assay with SF-268 CNS, in the assay on SNB-19 CNS and in the assay on UACC-257 melanoma was over 100 µM throughout.
For the compound `Cc1[nH]c2c(c1C)S(=O)(=O)c1cc3ccccc3nc1N2`, the TGI in the assay on CCRF-CEM leukemia was 45.8 µM; in the assay on KM12 colon it was over 100 µM; with LOX IMVI melanoma, 36.4 µM; in the assay on MDA-MB-231 breast it was 76.1 µM; in the assay on NCI-H226 lung, 66.5 µM; with OVCAR-3 ovarian, 45.2 µM. Moreover, the TGI was 40.4 µM in the assay with RPMI-8226 leukemia, over 100 µM in the assay on SF-268 CNS, 70.6 µM in the assay on SNB-19 CNS and over 100 µM in the assay with UACC-257 melanoma.
For the compound `COC(=O)C(Cc1c[nH]c2ccccc12)NC(=O)C(Cc1c[nH]c2ccccc12)NC(=O)C(Cc1c[nH]c2ccccc12)NC(=O)C(Cc1c[nH]c2ccccc12)NC(=O)C(Cc1c[nH]c2ccccc12)NC(=O)C(Cc1c[nH]c2ccccc12)NC(=O)OC(C)(C)C` (stereo unspecified) (Boc-WWWWWW-OMe; configuration not given here), the TGI in the assay on CCRF-CEM leukemia, in the assay with LOX IMVI melanoma, in the assay with MDA-MB-231 breast, in the assay on NCI-H226 lung, in the assay on OVCAR-3 ovarian and with RPMI-8226 leukemia was over 100 µM throughout. The TGI in the assay with SF-268 CNS, in the assay with SNB-19 CNS and in the assay with UACC-257 melanoma was over 100 µM in each case.
As to `COC(=O)C1Cc2c(OC)ccc(OC)c2CC(C(=O)OC)C1=O` (stereo unspecified), the TGI in the assay on CCRF-CEM leukemia, with KM12 colon, in the assay with MDA-MB-231 breast, with NCI-H226 lung, in the assay on OVCAR-3 ovarian and in the assay on RPMI-8226 leukemia was over 100 µM throughout. Also, the TGI in the assay on SF-268 CNS, with SNB-19 CNS and in the assay with UACC-257 melanoma was over 100 µM throughout.
For the compound `OC(c1cc2ccccc2o1)c1cc2ccccc2s1` (stereo unspecified), the TGI in the assay with CCRF-CEM leukemia, in the assay on KM12 colon, in the assay on LOX IMVI melanoma, in the assay on MDA-MB-231 breast, in the assay on NCI-H226 lung and in the assay with OVCAR-3 ovarian was over 10 µM throughout. Besides, the TGI in the assay with RPMI-8226 leukemia, in the assay on SF-268 CNS, with SNB-19 CNS and in the assay with UACC-257 melanoma was over 10 µM each time.
In the case of `COc1ccc2nc3ccc(OC)cc3c(SCCO)c2c1`, the TGI was over 31.1 µM in the assay on CCRF-CEM leukemia; over 63.8 µM in the assay with KM12 colon; over 63 µM with LOX IMVI melanoma; over 100 µM in the assay on MDA-MB-231 breast; over 100 µM with NCI-H226 lung; over 100 µM in the assay on OVCAR-3 ovarian. Also, the TGI in the assay on RPMI-8226 leukemia was 48.9 µM; in the assay on SF-268 CNS, 96.9 µM; in the assay with SNB-19 CNS it was over 100 µM; with UACC-257 melanoma it was over 100 µM.
In the case of `Nc1ncnc2c1nnn2C1C=CC(COS(N)(=O)=O)C1` (stereo unspecified), the TGI in the assay on CCRF-CEM leukemia is over 100 µM; with KM12 colon, 86.3 µM; in the assay on LOX IMVI melanoma it was 17.8 µM; in the assay on MDA-MB-231 breast it was over 100 µM; in the assay with NCI-H226 lung it was 42.1 µM; in the assay on OVCAR-3 ovarian it was 96.1 µM. Besides, the TGI in the assay on RPMI-8226 leukemia stood at 50.7 µM; in the assay with SF-268 CNS it was 93.6 µM; with SNB-19 CNS, 33.3 µM; with UACC-257 melanoma, 62.6 µM.
For the compound `CC(C)/C(Cl)=N\OC(=O)Nc1ccccc1F`, the TGI stood at 3.44 µM with CCRF-CEM leukemia; 40.3 µM with KM12 colon; 6.92 µM in the assay on LOX IMVI melanoma; 22.6 µM with MDA-MB-231 breast; 28.8 µM in the assay with NCI-H226 lung; 34.4 µM in the assay on OVCAR-3 ovarian. Also, the TGI was 92.6 µM in the assay with RPMI-8226 leukemia, 41.9 µM in the assay with SF-268 CNS, over 57.3 µM with SNB-19 CNS and 33.2 µM in the assay on UACC-257 melanoma.
On to `COc1ccc2c(CCN)c(C(=O)O)[nH]c2c1`, for which the TGI in the assay on CCRF-CEM leukemia, with KM12 colon, with LOX IMVI melanoma, in the assay on MDA-MB-231 breast, in the assay on NCI-H226 lung and with OVCAR-3 ovarian was over 100 µM in each case. The TGI in the assay with RPMI-8226 leukemia, in the assay with SF-268 CNS, with SNB-19 CNS and in the assay on UACC-257 melanoma was over 100 µM in each case.
With `C[C@H](CCC(=O)NCCS(=O)(=O)O)[C@H]1CC[C@H]2[C@@H]3CC[C@@H]4C[C@H](O)CC[C@]4(C)[C@H]3CC[C@]12C`, the TGI in the assay on CCRF-CEM leukemia, in the assay on KM12 colon, in the assay with LOX IMVI melanoma, in the assay on MDA-MB-231 breast, in the assay with NCI-H226 lung and with OVCAR-3 ovarian was over 100 µM in each case. Further, the TGI with RPMI-8226 leukemia, in the assay with SF-268 CNS, in the assay with SNB-19 CNS and in the assay with UACC-257 melanoma was over 100 µM each time.
For `COC(=O)C(Cc1c(C2Nc3ccccc3C2CC(NC(=O)CNC(C)=O)C(=O)OC)[nH]c2ccccc12)NC(=O)CNC(C)=O` (stereo unspecified), the TGI with CCRF-CEM leukemia, in the assay on KM12 colon, with LOX IMVI melanoma, with MDA-MB-231 breast, in the assay on NCI-H226 lung and in the assay with OVCAR-3 ovarian was over 100 µM throughout. Further, the TGI with RPMI-8226 leukemia, in the assay with SF-268 CNS, in the assay on SNB-19 CNS and in the assay on UACC-257 melanoma was over 100 µM throughout.
On to `COC(=O)C1=C(C(=O)OC)C(C(=O)c2ccc(Br)cc2)N2N=C(c3ccc(Cl)cc3)C=CC12` (stereo unspecified), for which the TGI in the assay on CCRF-CEM leukemia, in the assay with KM12 colon, in the assay on LOX IMVI melanoma, in the assay with MDA-MB-231 breast, in the assay on NCI-H226 lung and in the assay with OVCAR-3 ovarian was over 100 µM throughout. Moreover, the TGI in the assay on RPMI-8226 leukemia, with SF-268 CNS, in the assay with SNB-19 CNS and with UACC-257 melanoma was over 100 µM in each case.
